The source of these data is patent publication US20240132511A1, “TREATMENTS OF PRADER-WILLI SYNDROME” (Neuren Pharmaceuticals Limited, priority 2021, published 2024).

Test [1] has as its system Magel2-null mice. The experiment in a line: Insulin levels in female Magel2-null mice. Type of test: in vivo, mouse. Further details: key to Insulin, significance: **** = p < 0.0001; ns = not significant. On the procedure:
(§1) In vivo experiments were conducted in C57BL/6-Magel2tm1Stw/J (Magel2-null) mice at age P60 and their wild-type littermates during the light phase (littermates that were wild-type for Magel2 were used as controls). Ten mice per treatment group were used for studies 1 and 2, and six mice per group for study 3. In study 1: C57BL/6-Magel2tm1Stw/J (Magel2-null) mice were assessed on behavioral assays. Study 2 tested the efficacy of cG-2-AllylP in treating obesity and insulin levels in Magel2-null mice. Study 3 tested the IGF-1 level in Magel2-null mice. Because human beings have the same genetic abnormality, studies of Magel2-null mice are reasonably predictive of effects of compounds of Formulas I, II, III and IV in human beings with Prader-Willi Syndrome.
(§2) Testing was performed during the light phase of the circadian cycle, with the order of testing being determined by the principle of conducting the most stressful tests last. Assays were designed to reproduce and expand on the original behavioral characterization of Magel2-null mice. Magel2-null and wild-type control mice were dosed once daily for 6 weeks prior to testing and tested 30 minutes following a dose of cG-2-AllylP (NNZ2591). Study groups and the treatment matrix are described in Table 2 below.
Prader-Willi Syndrome is associated with metabolic and hormonal abnormalities in humans. Magel2-null mice recapitulate some of the metabolic and hormonal aspects of humans with Prader-Willi Syndrome. Experiments were conducted to determine if cG-2-AllylP could have a normalizing effect in metabolic and hormonal aspects.
Because female Magel2-null mice present a significant increase in body weight compared with their littermate wild-type controls, female Magel2-null mice were used for this study.
Insulin was measured for each group.

Test [2] has as its system Magel2-null mice. The experiment in a line: Circulating IGF-1 level in Magel2-null mice. The class given is in vivo, mouse. Also on record: key: **** = p < 0.0001; ns = not significant. The method, then: as §1, §2
Prader-Willi Syndrome may be associated with altered IGF-1 levels in humans.

[3] abbreviates: Magel2-null + NNZ2591 200 mg/kg.

Structures are written as SMILES.

For the compound `C=CCC12CCCN1C(=O)CNC2=O` [cG-2-AllylP, (8aS)-Allyl-hexahydropyrrolo[1,2-a]pyrazine-1,4-dione], the “Insulin (mean ± SEM)” value is 143 pM in test [1] (Magel2-null + NNZ2591 100 mg/kg), 119 pM in test [1] (setting [3]), 112 pM in test [1] (WT + NNZ2591 100 mg/kg) and 115 pM in test [1] (WT + NNZ2591 200 mg/kg). The “Insulin, significance” value in test [1] (setting [3]) is “(ns)”. In addition, the “IGF-1 level, Sidak's multiple comparisons test, Summary” value in test [2] (Magel2-null + Vehicle vs. Magel2-null + NNZ2591 (100 mg/kg)) is recorded as “**** (**** = p < 0.0001)”; in test [2] (WT + NNZ2591 (200 mg/kg) vs. Magel2-null + NNZ2591 (200 mg/kg)), “ns”; in test [2] (WT + Vehicle vs. WT + NNZ2591 (100 mg/kg)), “ns”; in test [2] (WT + Vehicle vs. WT + NNZ2591 (200 mg/kg)), “ns”.
